Patent US20090176817A1, “Method of Treatment of Diarrhea-Predominant Irritable Bowel Syndrome in a Subject” (priority 2005, published 2009)

Tested on: diarrhea-predominant IBS subjects
Assay: Study S241.3.011: weekly diary questions on adequate relief
Type: in vivo, human
Experimental: Study S241.3.011 was a Phase III, double-blind, placebo-controlled, randomized, multinational study to investigate the safety and efficacy of 2 mg TID of cilansetron for a period of 12 weeks followed by a rerandomized, placebo-controlled four-week treatment period, in diarrhea-predominant IBS subjects. The study was conducted in six countries including the US. A total of 2115 subjects consented to participate, and 770 subjects were randomized. A total of 746 subjects were analyzed for efficacy and 755 subjects were analyzed for safety. Diagnosis and main criteria for inclusion were IBS subjects satisfying the Rome I criteria (1992); the diarrhea predominant sub-population of the Rome II criteria; and a minimum abdominal pain/discomfort, stool frequency and consistency determined during the run-in period. Subjects were treated with cilansetron 2 mg tablets given orally TID or matching placebo tablets given orally TID for 12 weeks followed by a rerandomized, placebo-controlled four-week treatment period.
The primary efficacy parameter was the number of months that a subject was a responder for IBS symptoms (abdominal pain, abdominal discomfort, abnormal bowel habits) over the 12-week treatment period. A responder for a month (monthly responder) was defined as a subject who answered the weekly question with “yes” at least twice for that month. The two main secondary efficacy parameters were the monthly responder rates based on the “adequate relief” questions regarding abdominal pain/discomfort and abnormal bowel habits during the 12-week treatment period. The overall response rate and responder rate for the weekly diary questions on adequate relief at each month and all months, the adequate relief rate, the number of subjects with adequate relief by week, daily diary questions, IBS-QOL scores, and the interruption of activities were also assessed. Safety was evaluated by physical examination, ECG, vital signs, laboratory evaluations, concomitant medications, and AEs.
Subjects who were initially randomized to the cilansetron 2 mg TID group and rerandomized to placebo, will be referred to as the C/P treatment group; subjects initially randomized to the placebo group and rerandomized to placebo will be referred to as the P/P treatment group; the P/C and C/C treatment group nomenclature follow the same principle. Of the 591 subjects who completed the three-month treatment period, 576 subjects were rerandomized and thus divided into the following treatment groups: 150 subjects in the C/C treatment group, 140 subjects in the C/P treatment group, 136 subjects in the P/C treatment group, and 150 subjects in the P/P treatment group. Of the 576 subjects rerandomized, a higher percentage of subjects in the C/C treatment group (99%) completed the study compared with the C/P (95%), P/C (93%), and the P/P (95%) treatment groups.
Studies S24 1.3.OO6, S24 1.3.0 1 1, and S24 1.3.009 used the following efficacy measurements: • The subjects answered the following three questions with “yes” or “no” using a phone diary at the end of each week: • a) During the last week, did you experience adequate relief of your IBS symptoms, such as abdominal pain, abdominal discomfort, abnormal bowel habits? • b) During the last week, did you experience adequate relief of your abdominal pain and/or discomfort? • c) During the last week, did you experience adequate relief of your abnormal bowel habits? • The subjects rated the following symptoms using the phone diary at the end of each day: • abdominal pain/discomfort (five-point scale); • stool consistency (seven-point Bristol Stool Scale); • stool frequency (number of bowel movements each day); • urgency (five-point scale); • straining (yes or no); • feeling of incomplete defecation (yes or no); • bloating or feeling of abdominal distension (five-point scale). • In Studies S241 A006 and S241.3.009, subjects completed the IBS-QOL Survey at Baseline (Day 1) and at the end of treatment. […]

[1] = 2 mg TID, monthly LOCF, ITT N = 377
[2] = 2 mg TID, three-month treatment period, monthly LOCF, ITT N = 377
[3] = 2 mg TID, three-month treatment period, observed case, ITT N = 377
[4] = Baseline BMI: <30 kg/m^2, three-month treatment period, monthly LOCF, ITT, 2 mg TID

Cc1nccn1C[C@H]1CCc2c(c3cccc4c3n2CCC4)C1=O [Cilansetron, (R)-(−)-4,5,6,8,9,10-hexahydro-10-[(2-methyl-1H-imidazol-1-yl)methyl]-11H-pyrido-[3,2,1-jk]-carbazol-11-one]
Responders for one month, IBS symptoms (2 mg TID, 3 months): 14%
Responders for one month, abdominal pain/discomfort (2 mg TID, 3 months): 12%
Responders for one month, abnormal bowel habits (2 mg TID, 3 months): 13%
Responders for three months, IBS symptoms (2 mg TID, 3 months): 39%
Responders for three months, abdominal pain/discomfort (2 mg TID, 3 months): 42%
Responders for three months, abnormal bowel habits (2 mg TID, 3 months): 40%
Responders for two months, IBS symptoms (2 mg TID, 3 months): 19%
Responders for two months, abdominal pain/discomfort (2 mg TID, 3 months): 19%
Responders for two months, abnormal bowel habits (2 mg TID, 3 months): 18%
Responders for zero months, IBS symptoms (2 mg TID, 3 months): 28%
Responders for zero months, abdominal pain/discomfort (2 mg TID, 3 months): 27%
Responders for zero months, abnormal bowel habits (2 mg TID, 3 months): 30%
Responder rate, adequate relief of IBS symptoms, Each month of Months 1 to 3 [1]: 148 (39) n (%)
Responder rate, adequate relief of IBS symptoms, Month 1 [1]: 216 (57) n (%)
Responder rate, adequate relief of IBS symptoms, Month 2 [1]: 214 (57) n (%)
Responder rate, adequate relief of IBS symptoms, Month 3 [1]: 208 (55) n (%)
Responder rate, adequate relief of abdominal pain/discomfort, Each month of Months 1 to 3 [1]: 159 (42) n (%)
Responder rate, adequate relief of abdominal pain/discomfort, Month 1 [1]: 217 (58) n (%)
Responder rate, adequate relief of abdominal pain/discomfort, Month 2 [1]: 229 (61) n (%)
Responder rate, adequate relief of abdominal pain/discomfort, Month 3 [1]: 220 (58) n (%)
Responder rate, adequate relief of abnormal bowel habits, Each month of Months 1 to 3 [1]: 149 (40) n (%)
Responder rate, adequate relief of abnormal bowel habits, Month 1 [1]: 214 (57) n (%)
Responder rate, adequate relief of abnormal bowel habits, Month 2 [1]: 209 (55) n (%)
Responder rate, adequate relief of abnormal bowel habits, Month 3 [1]: 206 (55) n (%)
Subjects who were responders for One month, adequate relief of IBS symptoms [2]: 54 (14) n (%)
Subjects who were responders for One month, adequate relief of abdominal pain/discomfort [2]: 45 (12) n (%)
Subjects who were responders for One month, adequate relief of abnormal bowel habits [2]: 50 (13) n (%)
Subjects who were responders for Three months, adequate relief of IBS symptoms [2]: 148 (39) n (%)
Subjects who were responders for Three months, adequate relief of abdominal pain/discomfort [2]: 159 (42) n (%)
Subjects who were responders for Three months, adequate relief of abnormal bowel habits [2]: 149 (40) n (%)
Subjects who were responders for Two months, adequate relief of IBS symptoms [2]: 70 (19) n (%)
Subjects who were responders for Two months, adequate relief of abdominal pain/discomfort [2]: 72 (19) n (%)
Subjects who were responders for Two months, adequate relief of abnormal bowel habits [2]: 66 (18) n (%)
Subjects who were responders for Zero months, adequate relief of IBS symptoms [2]: 105 (28) n (%)
Subjects who were responders for Zero months, adequate relief of abdominal pain/discomfort [2]: 101 (27) n (%)
Subjects who were responders for Zero months, adequate relief of abnormal bowel habits [2]: 112 (30) n (%)
Overall responder rate, adequate relief of IBS symptoms [3]: 206 (55) n (%)
Overall responder rate, adequate relief of abdominal pain/discomfort [3]: 221 (59) n (%)
Overall responder rate, adequate relief of abnormal bowel habits [3]: 203 (54) n (%)
Median adequate relief rate, IBS symptoms (3 months): 0.58
Median adequate relief rate, abdominal pain/discomfort (3 months): 0.58
Median adequate relief rate, abnormal bowel habits (3 months): 0.58
Overall responder rate, IBS symptoms (3 months, observed case, ITT): 55%
Overall responder rate, abdominal pain/discomfort (3 months, observed case, ITT): 59%
Overall responder rate, abnormal bowel habits (3 months, observed case, ITT): 54%
Responder rate, abdominal pain/discomfort (Argentina and Chile): 65%
Number of months a subject was a responder: One month (Abdominal pain/discomfort) [4]: 30 (11) n (%)
Number of months a subject was a responder: One month (Abnormal bowel habits) [4]: 33 (12) n (%)
Number of months a subject was a responder: One month (IBS symptoms) [4]: 38 (14) n (%)
Number of months a subject was a responder: Three months (Abdominal pain/discomfort) [4]: 113 (42) n (%)
Number of months a subject was a responder: Three months (Abnormal bowel habits) [4]: 104 (39) n (%)
Number of months a subject was a responder: Three months (IBS symptoms) [4]: 107 (40) n (%)
Number of months a subject was a responder: Two months (Abdominal pain/discomfort) [4]: 50 (19) n (%)
Number of months a subject was a responder: Two months (Abnormal bowel habits) [4]: 51 (19) n (%)
Number of months a subject was a responder: Two months (IBS symptoms) [4]: 48 (18) n (%)
Number of months a subject was a responder: Zero months (Abdominal pain/discomfort) [4]: 73 (27) n (%)
Number of months a subject was a responder: Zero months (Abnormal bowel habits) [4]: 78 (29) n (%)
